The record followed here is US7019034B2, “Compositions and methods for reducing serum glucose and triglyceride levels in diabetic mammals” (Allergan, Inc., priority 2003, dated 2006).

The target in assay [1] is T1, RARα (Homo sapiens, UniProt P10276).
T1 sequence (P10276 1-462): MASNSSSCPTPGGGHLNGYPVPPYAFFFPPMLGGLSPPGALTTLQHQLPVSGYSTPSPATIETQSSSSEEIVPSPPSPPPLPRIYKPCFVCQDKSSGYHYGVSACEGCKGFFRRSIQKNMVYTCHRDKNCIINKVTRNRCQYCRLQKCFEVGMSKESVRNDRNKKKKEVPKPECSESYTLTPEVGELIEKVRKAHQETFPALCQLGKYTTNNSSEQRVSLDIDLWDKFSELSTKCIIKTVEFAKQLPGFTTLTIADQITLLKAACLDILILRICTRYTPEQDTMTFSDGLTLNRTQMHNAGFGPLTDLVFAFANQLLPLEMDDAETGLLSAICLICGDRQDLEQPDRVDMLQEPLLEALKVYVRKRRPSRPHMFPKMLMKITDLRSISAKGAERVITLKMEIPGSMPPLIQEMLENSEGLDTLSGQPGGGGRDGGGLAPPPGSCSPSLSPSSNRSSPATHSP
Nature of the assay: chimeric receptor transactivation assay, RARα. It counts as cell-based. An excerpt: The specification of U.S. Pat. No. 5,455,265 is hereby expressly incorporated by reference.
Table 1 discloses the activity of certain exemplary compounds of the invention in the above-described receptor transactivation and binding assays. Particularly, the transactivation data pertaining to activation of the RAR receptors were obtained in the chimeric assay, and the transactivation data pertaining to the activation of RXR receptors were obtained in the holoreceptor assay.
Efficacy in a transactivation assay is expressed as a percentage of the maximum potency attained by the compound compared to a standard which, in this case, is the compound named (2E,4E,1′S,2′S)-3-methyl-5-[2′-methyl-2′-(5,5,8,8-tetramethyl-5,6,7,8-tetrahydro-naphthalen-2-yl)-cyclopropyl]-penta-2,4-dienoic acid.
(§1) In Table 1 NA stands for not active at all as an agonist. ND stands for not determined. The first row of numbers pertaining to each compound is the measured EC50 number. […] The third row of numbers pertaining to each compound is the binding Ki number.

A further assay deals with T2, RXRγ (UniProt P28705).
T2 sequence (P28705 1-463): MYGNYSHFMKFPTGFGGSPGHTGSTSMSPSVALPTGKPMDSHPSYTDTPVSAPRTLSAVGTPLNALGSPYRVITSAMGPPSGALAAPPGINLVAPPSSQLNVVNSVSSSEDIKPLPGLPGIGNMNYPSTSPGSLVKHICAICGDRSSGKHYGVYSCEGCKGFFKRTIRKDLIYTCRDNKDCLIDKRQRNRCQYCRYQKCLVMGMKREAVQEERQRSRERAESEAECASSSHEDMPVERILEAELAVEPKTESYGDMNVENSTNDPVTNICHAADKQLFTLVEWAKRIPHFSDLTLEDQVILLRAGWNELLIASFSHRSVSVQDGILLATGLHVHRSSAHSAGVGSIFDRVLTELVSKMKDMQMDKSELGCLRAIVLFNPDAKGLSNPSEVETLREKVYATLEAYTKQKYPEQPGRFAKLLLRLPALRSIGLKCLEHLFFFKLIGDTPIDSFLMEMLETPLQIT
The assay can be described thus: holoreceptor transactivation assay, RXRγ. Type of assay: cell-based.
Source text: The results obtained in this assay are expressed in EC50 numbers, as they are also in the chimeric receptor transactivation assay. The results of the ligand binding assay are expressed in Ki numbers.
Particularly, the transactivation data pertaining to activation of the RAR receptors were obtained in the chimeric assay, and the transactivation data pertaining to the activation of RXR receptors were obtained in the holoreceptor assay.
as §1

The target in assay [2] is T1, RARα. The assay can be described thus: ligand binding assay, RARα. To be noted: read-out: RAR Bind. Ki α.
Source text: (§2) A holoreceptor transactivation assay and a ligand binding assay which measure the antagonist/agonist like activity of the compounds of the invention, or their ability to bind to the several retinoid receptor subtypes, respectively, are described in published PCT Application No. WO WO93/11755 (particularly on pages 30–33 and 37–41) published on Jun. 24, 1993, the specification of which is also incorporated herein by reference. […] The results obtained in this assay are expressed in EC50 numbers, as they are also in the chimeric receptor transactivation assay. The results of the ligand binding assay are expressed in Ki numbers. (See Cheng et al. Biochemical Pharmacology Vol. 22 pp 3099–3108, expressly incorporated herein by reference.)
as §1

The next assay concerns the target T3, RARγ (Homo sapiens, UniProt P13631).
T3 sequence (P13631 1-454): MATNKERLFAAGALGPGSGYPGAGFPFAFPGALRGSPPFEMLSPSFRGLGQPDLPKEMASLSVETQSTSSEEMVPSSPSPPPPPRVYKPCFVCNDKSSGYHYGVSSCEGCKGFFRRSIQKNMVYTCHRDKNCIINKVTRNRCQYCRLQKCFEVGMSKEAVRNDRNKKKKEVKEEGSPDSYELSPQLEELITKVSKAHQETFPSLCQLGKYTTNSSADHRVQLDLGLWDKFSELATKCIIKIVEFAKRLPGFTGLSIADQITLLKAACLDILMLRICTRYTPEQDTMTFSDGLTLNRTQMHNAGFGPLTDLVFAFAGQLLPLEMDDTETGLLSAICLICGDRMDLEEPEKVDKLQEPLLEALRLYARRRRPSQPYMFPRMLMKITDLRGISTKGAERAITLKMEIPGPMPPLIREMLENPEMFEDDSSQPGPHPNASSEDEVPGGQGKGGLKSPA
The assay can be described thus: ligand binding assay, RARγ. Conditions: read-out: RAR Bind. Ki γ.
Source text: as §2, §1

The EC50 is the midpoint of the concentration-response curve. One may read the Ki as the equilibrium dissociation constant of an inhibitor or competing ligand from its target. As to `CCOc1cc2c(cc1\C(CC)=C(F)/C=C/C(C)=C/C(=O)O)C(C)(C)CCC2(C)C` [Compound 2, (2E,4E,6E)-7-(3-Ethoxy-5,5,8,8-tetramethyl-5,6,7,8-tetrahydronaphthalen-2-yl)-6-fluoro-3-methylnona-2,4,6-trienoic acid], the EC50 on RARα [1] (NA = not active at all as an agonist, read-out: RAR Trans. EC50 α) came to 37 nM; on RXRγ (NA = not active at all as an agonist, read-out: RXR Trans. EC50 γ), 9 nM. Also, at RARα [1] (number in brackets), the “RAR α efficacy in percentage as compared to the standard compound” value is 15%. Also, the “RXR γ efficacy in percentage as compared to the standard compound” value at RXRγ (number in brackets) is 18%. Moreover, the Ki came out at 152 nM at RARα [2] and 1510 nM on RARγ.

For `CCCOc1cc2c(cc1\C(C)=C(F)/C=C/C(C)=C/C(=O)O)C(C)(C)CCC2(C)C` [Compound 4], the Ki at RARα [2] is 590 nM; at RARγ, 720 nM.
